Test results reported in patent US12252524B2, “GIP/GLP1 co-agonist compounds” (Eli Lilly and Company, priority 2018, dated 2025).
Numbered stars: 1 amine (or outer) side, 2 acyl side, 3 side chain; on linkers, the order of the positions; unused ones are H or OH. Square brackets hold non-standard residues; d marks the D form. Side chains are listed from the residue outwards. Peptide text beside a SMILES is read from it. * marks the point of attachment. C20 diacid = O=C(O)CCCCCCCCCCCCCCCCCCC(=O)*; γGlu = O=C(O)[C@H](CCC(=O)[*:2])N[*:1]; αMeY = C[C@](N)(Cc1ccc(O)cc1)C(=O)O; αMeL = CC(C)C[C@](C)(N)C(=O)O; AEEA = NCCOCCOCC(=O)O; Aib = CC(C)(N)C(=O)O

What was measured:
[1] = target: T1, gastric inhibitory peptide receptor (GIPR) (Homo sapiens, UniProt P48546); test: cAMP pharmacological functional assay in presence of casein, hGIPR; assay type: cell-based; details: HEK293 cells expressing hGIPR, 0.1% Casein, geometric mean; read-out: hGIPR cAMP Rel EC50 nM (SEM, n)
T1 sequence (P48546 22-466): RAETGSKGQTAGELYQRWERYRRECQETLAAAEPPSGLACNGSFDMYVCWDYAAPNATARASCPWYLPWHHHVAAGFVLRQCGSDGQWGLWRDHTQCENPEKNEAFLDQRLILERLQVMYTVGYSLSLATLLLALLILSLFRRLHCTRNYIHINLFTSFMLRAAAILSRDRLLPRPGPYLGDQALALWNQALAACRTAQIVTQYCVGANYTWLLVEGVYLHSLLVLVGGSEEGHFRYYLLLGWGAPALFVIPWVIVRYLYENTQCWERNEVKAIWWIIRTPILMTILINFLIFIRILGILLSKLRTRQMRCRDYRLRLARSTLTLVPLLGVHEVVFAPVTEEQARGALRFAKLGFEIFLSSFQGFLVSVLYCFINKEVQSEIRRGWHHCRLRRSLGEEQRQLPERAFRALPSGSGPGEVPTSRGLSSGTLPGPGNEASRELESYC

human GLP-1R [2] = target: T2, human GLP-1R (Homo sapiens, UniProt P43220); test: GLP-1R CHO cell β-arrestin recruitment assay; assay type: cell-based; set-up: host or cells: CHO-K1 PathHunter cells, assay-ready frozen; details: for EC50: CHO-K1 cells
How it was run: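 PathHunter CHO-K1 cells with ProLink-tagged human GLP-1R and enzyme-acceptor-tagged β-arrestin-2 treated with serially diluted peptides in assay buffer containing 0.1% hydrolyzed casein, 90 min at 37 °C.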

human GLP-1R [3] = target: T2, human GLP-1R; test: GLP-1R HEK293 cell membrane [35S]GTPγS binding assay; assay type: biochemical; set-up: expressed in transfected cells; host or cells: HEK293 cells expressing human GLP-1R; membranes; details: HEK293 cell membranes expressing human GLP-1R, [35S]GTPγS binding; read-out: hGLP1R GTPgS Rel EC50 nM (SEM, n)
How it was run: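 Membranes from HEK293 cells expressing the receptor incubated with peptide and […] [35S]GTPγS in HEPES pH 7.4 buffer with NaCl, MgCl2, saponin and BSA, 30 min at room temperature. Gαs-bound label captured by anti-Gαs antibody/SPA beads and counted; EC50 from four-parameter logistic fit.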

[4] = target: human GLP-1 receptor (GLP-1R) (Homo sapiens, UniProt P43220); test: cAMP pharmacological functional assay in presence of casein, hGLP-1R; assay type: cell-based; details: HEK293 cells expressing hGLP-1R, 0.1% Casein, geometric mean; read-out: hGLP1R cAMP Rel EC50 nM (SEM, n)
[5] = PathHunter β-arrestin-2 recruitment, 0.1% casein, read-out: hGLP1R B-Arrestin2 Rel EC50 uM (SEM, n)

T2 sequence (P43220 24-463): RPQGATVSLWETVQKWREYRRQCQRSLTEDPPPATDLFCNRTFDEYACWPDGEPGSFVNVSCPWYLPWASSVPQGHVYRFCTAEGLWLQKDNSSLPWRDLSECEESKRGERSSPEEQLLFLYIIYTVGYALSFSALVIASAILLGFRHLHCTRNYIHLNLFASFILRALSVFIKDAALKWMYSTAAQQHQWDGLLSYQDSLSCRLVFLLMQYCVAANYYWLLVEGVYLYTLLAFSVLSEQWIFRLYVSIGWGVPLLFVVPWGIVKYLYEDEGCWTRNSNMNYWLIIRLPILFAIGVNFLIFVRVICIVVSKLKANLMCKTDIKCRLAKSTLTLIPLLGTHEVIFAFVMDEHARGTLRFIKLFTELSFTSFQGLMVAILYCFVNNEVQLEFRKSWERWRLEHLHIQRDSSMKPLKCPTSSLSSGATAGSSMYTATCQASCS
human GLP-1 receptor (GLP-1R), sequence (P43220 24-463): as above

Compound: CC[C@H](C)[C@H](NC(=O)[C@H](CC(C)C)NC(=O)[C@H](Cc1ccc(O)cc1)NC(=O)[C@H](CCC(=O)O)NC(=O)[C@@H](NC(=O)[C@H](Cc1ccccc1)NC(=O)[C@H](CCC(=O)O)NC(=O)C(C)(C)NC(=O)[C@H](CCC(N)=O)NC(=O)[C@H](C)NC(=O)[C@H](CCCCNC(=O)COCCOCCNC(=O)CC[C@H](NC(=O)CCCCCCCCCCCCCCCCCCC(=O)O)C(=O)O)NC(=O)[C@H](CCCCN)NC(=O)[C@H](CC(=O)O)NC(=O)[C@H](CC(C)C)NC(=O)[C@](C)(CC(C)C)NC(=O)[C@@H](NC(=O)[C@H](CO)NC(=O)[C@H](Cc1ccc(O)cc1)NC(=O)[C@H](CC(=O)O)NC(=O)[C@H](CO)NC(=O)[C@@H](NC(=O)[C@H](Cc1ccccc1)NC(=O)[C@@H](NC(=O)CNC(=O)[C@H](CCC(=O)O)NC(=O)C(C)(C)NC(=O)[C@H](N)Cc1ccc(O)cc1)[C@@H](C)O)[C@@H](C)O)[C@@H](C)CC)[C@@H](C)CC)C(=O)N[C@@H](C)C(=O)NCC(=O)NCC(=O)N1CCC[C@H]1C(=O)N[C@@H](CO)C(=O)N[C@@H](CO)C(=O)NCC(=O)N[C@@H](C)C(=O)N1CCC[C@H]1C(=O)N1CCC[C@H]1C(=O)N1CCC[C@H]1C(=O)N[C@@H](CO)C(N)=O [Example 378] (H-[dY][Aib]EGTFTSDYSI[αMeL]LDKK([AEEA-γGlu-C20 diacid])AQ[Aib]EFIEYLIAGGPSSGAPPPS-NH2)
- EC50 [1]: 0.067 nM
- EC50 (human GLP-1R [2]; 0.1% w/v hydrolyzed Casein, read-out: hGLP1R B-Arrestin2 Rel EC50): > 10.2 µM
- EC50 (human GLP-1R [2]; [5]): > 10.2 µM
- EC50 (human GLP-1R [3]): 0.359 nM
- EC50 [4]: 0.191 nM

Compound: CC[C@H](C)[C@H](NC(=O)[C@H](CC(C)C)NC(=O)[C@](C)(Cc1ccc(O)cc1)NC(=O)[C@H](CCC(=O)O)NC(=O)[C@@H](NC(=O)[C@H](Cc1ccccc1)NC(=O)[C@H](CCC(=O)O)NC(=O)C(C)(C)NC(=O)[C@H](CCC(N)=O)NC(=O)[C@H](C)NC(=O)[C@H](CCCCNC(=O)COCCOCCNC(=O)COCCOCCNC(=O)CC[C@H](NC(=O)CCCCCCCCCCCCCCCCCCC(=O)O)C(=O)O)NC(=O)[C@H](CCCCN)NC(=O)[C@H](CC(=O)O)NC(=O)[C@H](CC(C)C)NC(=O)[C@](C)(CC(C)C)NC(=O)[C@@H](NC(=O)[C@H](CO)NC(=O)[C@H](Cc1ccc(O)cc1)NC(=O)[C@H](CC(=O)O)NC(=O)[C@H](CO)NC(=O)[C@@H](NC(=O)[C@H](Cc1ccccc1)NC(=O)[C@@H](NC(=O)CNC(=O)[C@H](CCC(=O)O)NC(=O)C(C)(C)NC(=O)[C@H](N)Cc1ccc(O)cc1)[C@@H](C)O)[C@@H](C)O)[C@@H](C)CC)[C@@H](C)CC)C(=O)N[C@@H](CCC(=O)O)C(=O)NCC(=O)NCC(=O)N1CCC[C@H]1C(=O)N[C@@H](CO)C(=O)N[C@@H](CO)C(=O)NCC(=O)N[C@@H](C)C(=O)N1CCC[C@H]1C(=O)N1CCC[C@H]1C(=O)N1CCC[C@H]1C(=O)N[C@@H](CO)C(N)=O [Example 379] (H-[dY][Aib]EGTFTSDYSI[αMeL]LDKK([AEEA-AEEA-γGlu-C20 diacid])AQ[Aib]EFIE[αMeY]LIEGGPSSGAPPPS-NH2)
- EC50 [1]: 0.079 nM
- EC50 (human GLP-1R [2]; [5]): 0.0181 µM
- hGLP1R B-Arrestin2 % Top (human GLP-1R [2]; normalized to GLP-1 maximum control): 31.9%
- EC50 (human GLP-1R [3]): 0.239 nM
- EC50 [4]: 0.238 nM
